Source: PubChem BioAssay AID1259407 (Chemical Carcinogenesis Research Information System (CCRIS), 2018)
The source made the active and inactive calls. No rule for the calls is given here.

System: CCRIS mutagenicity, Ames/micronucleus/aberration tests
Assay: CCRIS mutagenicity studies
[1] = Test System: AMES SALMONELLA TYPHIMURIUM, Strain/Indicator: TA98, Metabolic Activation: HAMSTER, LIVER, S-9, AROCLOR 1254 (10%), Method: PREINCUBATION
[2] = Test System: AMES SALMONELLA TYPHIMURIUM, Strain/Indicator: TA98, Metabolic Activation: NONE, Method: PREINCUBATION
[3] = Test System: AMES SALMONELLA TYPHIMURIUM, Strain/Indicator: TA98, Metabolic Activation: NONE, Method: STANDARD PLATE
[4] = Test System: AMES SALMONELLA TYPHIMURIUM, Strain/Indicator: TA98, Metabolic Activation: RAT, LIVER, S-9, AROCLOR 1254 (10%), Method: PREINCUBATION
[5] = Test System: AMES SALMONELLA TYPHIMURIUM, Strain/Indicator: TA98, Metabolic Activation: RAT, LIVER, S-9, AROCLOR 1254, Method: STANDARD PLATE
[6] = Test System: AMES SALMONELLA TYPHIMURIUM, Strain/Indicator: TA100, Metabolic Activation: NONE, Method: PREINCUBATION
[7] = Test System: AMES SALMONELLA TYPHIMURIUM, Strain/Indicator: TA100, Metabolic Activation: NONE, Method: STANDARD PLATE
[8] = Test System: AMES SALMONELLA TYPHIMURIUM, Strain/Indicator: TA100, Metabolic Activation: RAT, LIVER, S-9, AROCLOR 1254 (10%), Method: PREINCUBATION
[9] = Test System: AMES SALMONELLA TYPHIMURIUM, Strain/Indicator: TA100, Metabolic Activation: RAT, LIVER, S-9, AROCLOR 1254, Method: STANDARD PLATE
[10] = Test System: AMES SALMONELLA TYPHIMURIUM, Strain/Indicator: TA1535, Metabolic Activation: HAMSTER, LIVER, S-9, AROCLOR 1254 (10%), Method: PREINCUBATION
[11] = Test System: AMES SALMONELLA TYPHIMURIUM, Strain/Indicator: TA1535, Metabolic Activation: NONE, Method: PREINCUBATION
[12] = Test System: AMES SALMONELLA TYPHIMURIUM, Strain/Indicator: TA1535, Metabolic Activation: RAT, LIVER, S-9, AROCLOR 1254 (10%), Method: PREINCUBATION
[13] = Test System: AMES SALMONELLA TYPHIMURIUM, Strain/Indicator: TA1537, Metabolic Activation: NONE, Method: PREINCUBATION
[14] = Test System: AMES SALMONELLA TYPHIMURIUM, Strain/Indicator: TA97, Metabolic Activation: NONE, Method: PREINCUBATION

Structure (SMILES)	mutagenic call [1]	mutagenic call [2]	mutagenic call [3]	mutagenic call [4]	mutagenic call [5]	mutagenic call [6]	mutagenic call [7]	mutagenic call [8]	mutagenic call [9]	mutagenic call [10]	mutagenic call [11]	mutagenic call [12]	mutagenic call [13]	mutagenic call [14]	other results
ClC1=C(Cl)[C@]2(Cl)[C@@H]3[C@H]4C[C@H]([C@@H]5O[C@H]45)[C@@H]3[C@@]1(Cl)C2(Cl)Cl	inactive; negative	inactive; negative	inactive; negative	inactive; negative	inactive; negative	inactive; negative	inactive; negative	inactive; negative	inactive; negative	inactive; negative	inactive; negative	inactive; negative	inactive; negative	–	mutagenic call (Test System: AMES SALMONELLA TYPHIMURIUM, Strain/Indicator: TA97, Metabolic Activation: NONE, Method: STANDARD PLATE): inactive; negative; mutagenic call (Test System: AMES SALMONELLA TYPHIMURIUM, Strain/Indicator: TA97, Metabolic Activation: RAT, LIVER, S-9, AROCLOR 1254, Method: STANDARD PLATE): inactive; negative; mutagenic call (Test System: AMES SALMONELLA TYPHIMURIUM, Strain/Indicator: TA100, Metabolic Activation: HAMSTER, LIVER, S-9, AROCLOR 1254 (10%), Method: PREINCUBATION): inactive; negative; mutagenic call (Test System: AMES SALMONELLA TYPHIMURIUM, Strain/Indicator: TA102, Metabolic Activation: NONE, Method: STANDARD PLATE): inactive; negative; mutagenic call (Test System: AMES SALMONELLA TYPHIMURIUM, Strain/Indicator: TA102, Metabolic Activation: RAT, LIVER, S-9, AROCLOR 1254, Method: STANDARD PLATE): inactive; negative; mutagenic call (Test System: AMES SALMONELLA TYPHIMURIUM, Strain/Indicator: TA1537, Metabolic Activation: HAMSTER, LIVER, S-9, AROCLOR 1254 (10%), Method: PREINCUBATION): inactive; negative; mutagenic call (Test System: AMES SALMONELLA TYPHIMURIUM, Strain/Indicator: TA1537, Metabolic Activation: RAT, LIVER, S-9, AROCLOR 1254 (10%), Method: PREINCUBATION): inactive; negative; mutagenic call (Test System: MOUSE LYMPHOMA, Strain/Indicator: L5178Y (TK+/TK-), Metabolic Activation: NONE, Method: SUSPENSION/PLATE): inactive; negative; mutagenic call (Test System: MOUSE LYMPHOMA, Strain/Indicator: L5178Y (TK+/TK-), Metabolic Activation: RAT, LIVER, S-9, AROCLOR 1254, Method: SUSPENSION/PLATE): inactive; negative
CC(=O)c1ccc(N=O)cc1	–	–	active; positive	–	active; positive	–	active; positive	–	inactive; negative	–	–	–	–	–	–
NC(=O)NNC(N)=O	–	inactive; negative	–	–	–	inactive; negative	–	–	–	–	inactive; negative	–	inactive; negative	inactive; negative	mutagenic call (Test System: AMES SALMONELLA TYPHIMURIUM, Strain/Indicator: TA97, Metabolic Activation: HAMSTER, LIVER, S-9, AROCLOR 1254 (10 OR 30%), Method: PREINCUBATION): inactive; negative; mutagenic call (Test System: AMES SALMONELLA TYPHIMURIUM, Strain/Indicator: TA97, Metabolic Activation: RAT, LIVER, S-9, AROCLOR 1254 (10 OR 30%), Method: PREINCUBATION): inactive; negative; mutagenic call (Test System: AMES SALMONELLA TYPHIMURIUM, Strain/Indicator: TA98, Metabolic Activation: HAMSTER, LIVER, S-9, AROCLOR 1254 (10 OR 30%), Method: PREINCUBATION): inactive; negative; mutagenic call (Test System: AMES SALMONELLA TYPHIMURIUM, Strain/Indicator: TA98, Metabolic Activation: RAT, LIVER, S-9, AROCLOR 1254 (10 OR 30%), Method: PREINCUBATION): inactive; negative; mutagenic call (Test System: AMES SALMONELLA TYPHIMURIUM, Strain/Indicator: TA100, Metabolic Activation: HAMSTER, LIVER, S-9, AROCLOR 1254 (10 OR 30%), Method: PREINCUBATION): inactive; negative; mutagenic call (Test System: AMES SALMONELLA TYPHIMURIUM, Strain/Indicator: TA100, Metabolic Activation: RAT, LIVER, S-9, AROCLOR 1254 (10 OR 30%), Method: PREINCUBATION): inactive; negative; mutagenic call (Test System: AMES SALMONELLA TYPHIMURIUM, Strain/Indicator: TA1535, Metabolic Activation: HAMSTER, LIVER, S-9, AROCLOR 1254 (10 OR 30%), Method: PREINCUBATION): inactive; negative; mutagenic call (Test System: AMES SALMONELLA TYPHIMURIUM, Strain/Indicator: TA1535, Metabolic Activation: RAT, LIVER, S-9, AROCLOR 1254 (10 OR 30%), Method: PREINCUBATION): inactive; negative; mutagenic call (Test System: AMES SALMONELLA TYPHIMURIUM, Strain/Indicator: TA1537, Metabolic Activation: HAMSTER, LIVER, S-9, AROCLOR 1254 (10 OR 30%), Method: PREINCUBATION): inactive; negative; mutagenic call (Test System: AMES SALMONELLA TYPHIMURIUM, Strain/Indicator: TA1537, Metabolic Activation: RAT, LIVER, S-9, AROCLOR 1254 (10 OR 30%), Method: PREINCUBATION): inactive; negative
O=C(O)c1ccccc1[N+](=O)[O-]	inactive; negative	active; positive	–	inactive; negative	–	–	–	inactive; negative	inactive; negative	inactive; negative	inactive; negative	inactive; negative	inactive; negative	inactive; negative	mutagenic call (Test System: AMES SALMONELLA TYPHIMURIUM, Strain/Indicator: TA97, Metabolic Activation: HAMSTER, LIVER, S-9, AROCLOR 1254 (10%), Method: PREINCUBATION): inactive; negative; mutagenic call (Test System: AMES SALMONELLA TYPHIMURIUM, Strain/Indicator: TA97, Metabolic Activation: RAT, LIVER, S-9, AROCLOR 1254 (10%), Method: PREINCUBATION): inactive; negative; mutagenic call (Test System: AMES SALMONELLA TYPHIMURIUM, Strain/Indicator: TA98, Metabolic Activation: RAT, LIVER, S-9, KANECHLOR 500, Method: PREINCUBATION): active; positive; mutagenic call (Test System: AMES SALMONELLA TYPHIMURIUM, Strain/Indicator: TA100, Metabolic Activation: HAMSTER, LIVER, S-9, AROCLOR 1254 (5 OR 30%), Method: PREINCUBATION): inactive; negative; mutagenic call (Test System: AMES SALMONELLA TYPHIMURIUM, Strain/Indicator: TA100, Metabolic Activation: HAMSTER, LIVER, S-9, AROCLOR 1254, FLAVIN MONONUCLEOTIDE, Method: PREINCUBATION): inactive; negative; mutagenic call (Test System: AMES SALMONELLA TYPHIMURIUM, Strain/Indicator: TA100, Metabolic Activation: HAMSTER, LIVER, S-9, AROCLOR 1254, Method: PREINCUBATION): inactive; negative; mutagenic call (Test System: AMES SALMONELLA TYPHIMURIUM, Strain/Indicator: TA100, Metabolic Activation: RAT, LIVER, S-9, AROCLOR 1254 (5 OR 30%), Method: PREINCUBATION): inactive; negative; mutagenic call (Test System: AMES SALMONELLA TYPHIMURIUM, Strain/Indicator: TA100, Metabolic Activation: RAT, LIVER, S-9, AROCLOR 1254, FLAVIN MONONUCLEOTIDE, Method: PREINCUBATION): inactive; negative; mutagenic call (Test System: AMES SALMONELLA TYPHIMURIUM, Strain/Indicator: TA100, Metabolic Activation: RAT, LIVER, S-9, KANECHLOR 500, Method: PREINCUBATION): active; positive; mutagenic call (Test System: AMES SALMONELLA TYPHIMURIUM, Strain/Indicator: TA1538, Metabolic Activation: NONE, Method: PREINCUBATION): active; positive
CC(=O)OCCN(CCOC(C)=O)c1ccc([N+](=O)[O-])c2c(NCCCN(C)C)c3ccccc3nc12	–	–	active; positive	–	–	–	active; positive	–	–	–	–	–	–	–	–
c1ccc(-c2ccc(CCC3CO3)cc2)cc1 (stereo unspecified)	–	–	–	–	–	inactive; negative	active; positive	–	–	–	–	–	–	–	mutagenic call (Test System: AMES SALMONELLA TYPHIMURIUM, Strain/Indicator: TA1535, Metabolic Activation: NONE, Method: STANDARD PLATE): inactive; negative
